According to paper PMC10644720 (Frontiers in Pharmacology, 2023):

Columns and labels:
[1] = test system: human washed platelets; test: Platelet-collagen static adhesion assay; assay type: cell-based
Description: As previously reported ([Banfi et al., 2022]), 50 μg/mL collagen and 25 μg/mL fibrinogen (Cat No. F3879-100 MG; Sigma-Aldrich, St. Louis, MO, United States) were used to coat coverslips overnight at 4°C. […] The coated slides were washed three times with PBS and blocked with 1% BSA (prepared in PBS) for 1 h at room temperature. The blocking solution was removed, and WPs were added for adhesion experiments. The WPs were allowed to adhere to the slides for 15–60 min at 37°C. The unadhered platelets were removed by PBS. The platelets were fixed with 2% paraformaldehyde solution for 15 min, broken using 1% Triton-100 for 5 min, and stained with phalloidin (1:1,000, Cat No.17466-45-4, Sigma-Aldrich) for 30 min away from light at room temperature. The platelet morphology was observed using an Olympus ix73 microscope (Olympus Corp., Shinjuku, Japan) and photographed. The number of platelet adhesions and spreading area were analyzed and calculated using ImageJ software.

[2] = Coagulation function in mice; assay type: in vivo, C57BL/6 mice; settings: 30 min after administration
Description: Then, 30 min after administration, blood was removed from the eyes and anticoagulated with 3.8% sodium citrate. The plasma was obtained by centrifugation at 3,000 rpm for 10 min at room temperature, and coagulation-related indexes were measured using an STA Compact Max (Diagnostica Stago, Inc. Asnières-sur-Seine, France).

O=c1cc(-c2ccc(O)c(O)c2)oc2cc(O)cc(O)c12 [Luteolin]
adherent area vs vehicle ([1]; luteolin 25 µM, at 15, 30, 45, and 60 min): decreased
surface per platelet vs vehicle ([1]; luteolin 25 µM, at 15, 45, and 60 min): decreased
surface per platelet vs vehicle ([1]; luteolin 2.5 and 10 µM, at 15 and 45 min): decreased
adherent area vs vehicle ([1]; luteolin 2.5 and 10 µM, at 60 min): slightly decreased
platelet adherence (number of adherent platelets) on collagen vs vehicle ([1]; luteolin 10 and 25 µM, at 45 and 60 min): significantly decreased
activated partial thromboplastin time (APTT) [2]: no significant effects
plasma concentration of fibrinogen [2]: no significant effects
prothrombin time (PT) [2]: no significant effects
thrombin time (TT) [2]: no significant effects
